# Laboratory results reported in US4695570A, “Antiviral compound use” (Burroughs Wellcome Co., priority 1985, dated 1987).
# What was measured:
# [1] = system: bovine milk xanthine oxidase; experiment: Enzymatic conversion of 6-deoxyacyclovir to acyclovir by bovine milk xanthine oxidase (Example 2); format: biochemical; conditions: 24 hours, 43.6 μM substrate, pH 6.8, 25° C, atmospheric oxygen; UV monitoring
# Description: A solution (20 μL) of a purified bovine milk xanthine oxidase containing 1.06 units (nmoles of xanthine oxidized per minute) of activity was added to 500 μL of a solution 43.6 μM with respect to 6-deoxyacyclovir, 0.05M with respect to potassium phosphate and 0.13 mM with respect to ethylenediaminetetraacetic acid at pH 6.8 and 25° C. The reaction mixture was equilibrated with atmospheric oxygen, and the oxygen served as the electron acceptor. […] The indentity of acyclovir as the product of the reaction was confirmed by its NMR spectrum.
# [2] = system: xanthine oxidase from bovine milk; experiment: Enzyme studies: rate of oxidation by xanthine oxidase from bovine milk; format: biochemical
# Source text: The discovery that the 6-hydrogen purine of formula (I) above can be readily converted into its corresponding 6-hydroxy analogue is surprising since in previous studies with xanthine oxidase from bovine milk (H. Lettre et al. (1967) Biochem. Pharmacol., 16, 1747-1755; T. A. Krenitsky et al. (1972) Arch. Biophys., 150, 585-599) it was shown that 9-substitution obliterates or greatly diminishes the rate at which a variety of purines are oxidized.
# [3] = Oral absorption and acyclovir blood/plasma levels in rats; format: in vivo
# Description: The following experiments were carried out to determine the urinary excretion and plasma levels of acyclovir after oral dosing of rats with acyclovir, 6-deoxyacyclovir and the 6-amino analogue thereof i.e. 2,6-diamino-9-(2-hydroxyethoxymethyl)purine, hereinafter referred to as aminoacyclovir.
# Long Evans male rats were dosed by intragastric needle with the drug and placed in metabolic cages which separated urine from feces. The collected urine and plasma samples were analyzed for acyclovir content by a radioimmunoassay (Quinn, R. P., et al., Anal. Biochem., 98, 319 (1979)).
# [4] = system: xanthine oxidase/dehydrogenase or aldehyde oxidase
# Source text: (§1) It is thus possible to synthesize acyclovir in the body (i.e. in vivo) by administering 6-deoxyacyclovir to mammals including humans wherein the 6-deoxyacyclovir is acted upon by xanthine oxidase/dehydrogenase or aldehyde oxidase in the body and is thereby converted into acyclovir. […] Oxygen or other appropriate electron acceptors such as ferricyanide ion or methylene blue may serve as the oxidizing agent. Microorganisms which contain or produce xanthine oxidase/dehydrogenase may be used to effect the conversion of 6-deoxyacyclovir to acyclovir.
# [5] = system: xanthine oxidase/dehydrogenase or aldehyde oxidase; experiment: Ex vivo (in vitro) enzymatic oxidation to acyclovir; format: biochemical
# Source text: as §1
# Beagle dogs = experiment: Toxicity study in Beagle dogs, per os; format: in vivo; conditions: 40 mg/kg/day, once daily 5 days
# Description: Two male and 2 female Beagle dogs were given 6-deoxyacyclovir per os (once daily for 5 consecutive days) at a dose level of 40 mg/kg/day. There were no effects in 1 male and 1 female sacrificed at the end of the treatment period or in 1 male and 1 female sacrificed after a 2 week post-dose period.
# [6] = Water solubility at 25° C; format: physicochemical
# [7] = system: herpes viruses such as herpes simplex; conditions: cited from earlier work
# [8] = cited from earlier work
# adenosine deaminase = conditions: depends on adenosine deaminase; Good and de Miranda 1982; cited from earlier work
smiles,measurement,setting,value
"Nc1ncc2ncn(COCCO)c2n1 [6-deoxyacyclovir, 2-Amino-9-(2-hydroxyethoxymethyl)purine]",conversion to acyclovir,[1],nearly complete conversion to acyclovir
same,rate of oxidation relative to the 9-unsubstituted purine,[2],at a faster rate than the 9-unsubstituted purine
same,blood levels of acyclovir compared with oral acyclovir itself,[3],higher blood levels of acyclovir are obtainable with 6-deoxyacyclovir than with acyclovir itself
same,absorption from the gastro-intestinal tract and plasma levels of acyclovir,[3]; rats,efficient absorption from the gastro-intestinal tract and high plasma levels of the corresponding acyclovir
same,conversion in vivo into acyclovir,[4],readily converted in vivo
same,ex vivo (in vitro) enzymatic oxidation to acyclovir,[5],demonstrated that acyclovir may be synthesized
same,effects in toxicity study,Beagle dogs; after 2 week post-dose period,no effects
same,effects in toxicity study,Beagle dogs; end of treatment,no effects
"Nc1nc2c(ncn2COCCO)c(=O)[nH]1 [acyclovir, 9-(2-hydroxyethoxymethyl)guanine]",solubility in water,[6],1250 µg/mL
same,activity against herpes viruses,[7]; herpes viruses such as herpes simplex,particularly good activity against herpes viruses
same,effectiveness upon topical or parenteral administration,[7]; topical or parenteral,especially effective upon topical or parenteral administration
same,absorption upon oral administration,[8],only moderately well absorbed upon oral administration
"Nc1nc(N)c2ncn(COCCO)c2n1 [aminoacyclovir, 2,6-diamino-9-(2-hydroxyethoxymethyl)purine]",conversion to acyclovir in vivo,adenosine deaminase,depends on adenosine deaminase for conversion to acyclovir in vivo
